{"source": "paper PMC4619705", "about": "(PLoS ONE, 2015)", "origin": "cited, not measured here", "biological_target": "T1, α2β3γ2L GABAARs (Homo sapiens, UniProt P18507+P28472+P47869)", "T1 construct": "expressed in transfected cells; host or cells: Xenopus laevis oocytes injected with capped mRNA, α2:β3:γ2L 3:1:3", "T1 sequence (P47869 29-451)": "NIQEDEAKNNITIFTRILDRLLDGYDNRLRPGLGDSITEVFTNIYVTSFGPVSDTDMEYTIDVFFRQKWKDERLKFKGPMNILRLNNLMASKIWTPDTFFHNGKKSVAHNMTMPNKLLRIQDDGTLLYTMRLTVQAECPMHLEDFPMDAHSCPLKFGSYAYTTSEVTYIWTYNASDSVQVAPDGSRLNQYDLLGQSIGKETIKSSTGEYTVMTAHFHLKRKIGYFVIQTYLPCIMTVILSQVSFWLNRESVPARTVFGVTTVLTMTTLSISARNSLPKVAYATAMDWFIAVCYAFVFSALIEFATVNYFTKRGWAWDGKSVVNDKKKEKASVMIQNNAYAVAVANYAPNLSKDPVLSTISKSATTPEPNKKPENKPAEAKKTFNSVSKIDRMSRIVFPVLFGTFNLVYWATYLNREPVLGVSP", "T1 sequence (P28472 26-473)": "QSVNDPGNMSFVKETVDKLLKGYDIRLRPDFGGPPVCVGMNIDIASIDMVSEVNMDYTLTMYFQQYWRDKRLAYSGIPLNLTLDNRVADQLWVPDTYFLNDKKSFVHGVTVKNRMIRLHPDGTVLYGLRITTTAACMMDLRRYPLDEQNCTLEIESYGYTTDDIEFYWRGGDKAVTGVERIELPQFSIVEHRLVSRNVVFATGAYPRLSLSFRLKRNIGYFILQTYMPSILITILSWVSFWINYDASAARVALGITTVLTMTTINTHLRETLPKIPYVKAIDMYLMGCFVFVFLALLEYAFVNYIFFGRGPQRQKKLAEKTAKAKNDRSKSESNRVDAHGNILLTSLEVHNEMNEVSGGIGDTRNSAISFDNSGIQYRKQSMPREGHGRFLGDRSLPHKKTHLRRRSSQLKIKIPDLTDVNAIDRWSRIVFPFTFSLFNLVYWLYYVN", "T1 sequence (P18507 40-475)": "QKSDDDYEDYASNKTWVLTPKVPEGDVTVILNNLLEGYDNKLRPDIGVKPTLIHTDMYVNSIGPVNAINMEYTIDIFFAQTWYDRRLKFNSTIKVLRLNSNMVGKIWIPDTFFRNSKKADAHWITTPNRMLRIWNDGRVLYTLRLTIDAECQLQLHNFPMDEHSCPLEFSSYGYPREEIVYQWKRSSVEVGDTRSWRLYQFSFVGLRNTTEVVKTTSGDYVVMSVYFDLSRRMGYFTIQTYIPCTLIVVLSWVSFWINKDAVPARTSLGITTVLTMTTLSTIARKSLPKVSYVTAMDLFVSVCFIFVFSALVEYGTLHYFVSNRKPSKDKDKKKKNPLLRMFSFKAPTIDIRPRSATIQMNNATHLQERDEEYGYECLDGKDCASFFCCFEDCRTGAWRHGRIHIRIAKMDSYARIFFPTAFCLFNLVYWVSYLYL", "parameters": "method as in PMID 21797842", "conditions": "α2β3γ2L 1:1:10 injection ratio; cited from earlier work", "data": [{"smiles": "COc1ccccc1-c1cc(=O)c2cc(C)ccc2o1", "note": "[2’MeO6MF, 2’-methoxy-6-methylflavone]", "values": [{"measurement": "Agonist efficacy (direct activation)", "result": "full agonist"}]}]}
